This is an account of results in US20190282600A1, “COMBINATION THERAPIES TARGETING TERT DEPENDENCY FOR CANCER THERAPY” (The Wistar Institute of Anatomy and Biology, priority 2018, published 2019).

Holding throughout (type): cell-based, Human
In experiment [1] the test system is NRAS mutant melanoma cells. Kind of experiment: Global DNA damage, γH2AX staining by flow cytometry. Conditions: 1 μM 6-thio-dG for 7 days. On the procedure: (§1) FIGS. 2a to 2c show NRAS^mut melanoma cells (FIG. 2a), BRAF-V600E/NRAS mutant cells derived from melanoma patients resistant to BRAF/MEK inhibitors (FIG. 2b), or non-transformed melanocytes and fibroblasts (FIG. 2c) were treated with 6-thio-dG for 7 days. Cell viability was measured by Alamar Blue assay and calculated relative to DMSO-treated cells. […] Cell death was assessed by PSVUe staining. Percent of apoptotic cells is shown. […] Mean TRF length expressed as kilobase pairs is indicated at the bottom. […] FIG. 2g provides a bar graph showing that DNA damage was assessed by γH2AX staining. Data represent average from three independent experiments ±SEM. *p<0.05; **p<0.01; ***p<0.005 in unpaired Student's t-test. As presented in FIG. 2h, mice bearing established WM3000 or M93-047 NRAS^mut tumors were treated with vehicle control or 6-thio-dG (2.5 mg/kg i.p; q.d). Tumor volume was measured and average tumor volume (n=4) ±SEM was plotted vs. time.
For assessment of global DNA damage cells were fixed and permeabilized with BD CytoFix/Perm reagent following the manufacturer's instructions and incubated with γH2AX antibody (Cell Signaling Technology, Danvers, Mass.) for 1 h at room temperature followed by 1 h incubation with Alexa-647 anti-Rabbit secondary antibody. Mean fluorescence staining was quantified by flow cytometry. […]

Experiment [2] deals with NRAS mutant melanoma cells. Description: Telomere dysfunction-induced foci (TIF) assay, IF-FISH. Conditions: 6-thio-dG for 7 days. How it is done:
NRAS mutant melanoma cells WM3000 were transduced with TERT shRNA and treated with NAC (mM) for 7 days. […] Representative images are shown. (scale bar=10 μm). Quantification of TIF positive cells is plotted in FIG. 13b. Cells were scored as TIF positive when three or more g-H2AX foci (green) were co-localizing with telomere foci (red). Data represent average of thirteen fields imaged +/−SD.
NRAS^mut melanoma cells were treated with 6-thio-dG for 6, 12 or 18 days. As presented in FIG. 15a, relative cell number was assessed by Crystal Violet assay and calculated relative to DMSO-treated cells. Data represent average of three independent experiments +/−SD. […] NRAS^mut cells were treated with 6-thio-dG for 7 days and telomere induced foci (TIF) was determined by indirect immunofluorescence combined with fluorescence in situ hybridization (FISH) (FIG. 15c). […] Quantification of TIF assay is plotted in FIG. 15d. Cells were scored as TIF positive when four or more γ-H2AX foci (green, center row of FIG. 15c labelled as γH2AX) were co-localizing with telomere foci (red, top row of FIG. 15c labelled as Telomeres). […] P values were calculated by unpaired Student's t-test.
For TIF analysis, indirect immunofluorescence (IF) combined with fluorescence in situ hybridization (FISH) was performed as previously described with some modifications. […] TIF were quantified from at least three independent experiments.

The subject of experiment [3] is NRAS mutant melanoma cells. Description: Telomere length assay (TRF Southern blotting). To be noted: 1 μM 6-thio-dG for 14 days. On the procedure:
as §1
Genomic DNA was prepared using Wizard genomic DNA purification kit (Promega) following manufacturer's instruction. […] The images were analyzed with Phosphorimager, visualized by Typhoon 9410 Imager (GE Healthcare), and processed with ImageQuant 5.2 software (Molecular Dynamics).

SMILES strings stand for the structures.

As for `Nc1nc2c(ncn2[C@H]2C[C@H](O)[C@@H](CO)O2)c(=S)[nH]1` [6-thio-dG, 6-thio-2′-deoxyguanosine], in experiment [1], the γH2AX entry is reported as “increased levels”. Besides, in experiment [2], the TIFs result was “increased levels”. Further, the “telomere length (mean TRF)” value in experiment [3] is “without evidence for significant telomere shortening”.
